This note sets out measurements from PubChem BioAssay AID720570 (Broad Institute, 2013).

Active and inactive are the calls of the source.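 Rule for the calls: active = cell-killing curve crosses a set limit at a concentration no more than twice the top valid dose; inconclusive = flat curve with a 30 to 70% loss, or a poor fit; inactive = signal rising instead of falling, and the rest.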

The first assay in a line: cytotoxicity in EWS/Fli1-dependent TC71 cells – cell-based, luminescence, cherry-picked samples, retest, confirmation (AID 720570). The settings on record: TC71 Ewing sarcoma viability, CellTiter-Glo ATP, 72 h; at 21 µM (top of the series). A general note: ATP-based viability assays read luminescence as a measure of living cells.
For `COc1ccc(CN(C)C[C@H]2Oc3ccc(NC(=O)CCCCCC(=O)Nc4ccccc4N)cc3CC(=O)N([C@H](C)CO)C[C@H]2C)cc1`, the activity change, negative = cytotoxicity is -5.04% (inactive).

The same assay, now with this note: TC71 Ewing sarcoma viability, CellTiter-Glo ATP, 72 h; at 23.5 µM (top of the series).
On to `COC(=O)C[C@@H]1CC[C@@H]2[C@H](COc3ccc(NC(=O)c4cccc(Cl)c4)cc3C(=O)N2C)O1`, for which the activity change, negative = cytotoxicity is 2.41% (inactive).

The same assay, now with this note: TC71 Ewing sarcoma viability, CellTiter-Glo ATP, 72 h; at 26 µM (top of the series).
As to `O=C(CN1C(=O)c2ccccc2S1(=O)=O)c1ccc(F)cc1`, the activity change, negative = cytotoxicity is 12.8% (inactive). In the case of `CC(=O)c1ccc(N=C2C(=O)Nc3ccccc32)cc1`, the activity change, negative = cytotoxicity is -7.15% (inactive). The same measure, in the same setting: for `COc1ccc(/C=C2\SC(=O)N(CCCC(=O)Nc3ccc(C(=O)O)cc3)C2=O)cc1` the value was 21.2% (inactive); for `Cc1sc2nc(CN3CCC(C)CC3)nc(Cl)c2c1C`, 16.2% (inactive).

With `COC(=O)COc1ccc(-c2nccc(-c3ccccn3)n2)cc1`, the activity change, negative = cytotoxicity was 7.95% (inactive). For `NC1=CC(=O)C(=O)c2cccnc21`, the activity change, negative = cytotoxicity was 1.93% (inactive). In the case of `N#C[C@@H]1[C@H](c2ccc(C#Cc3ccccc3F)cc2)[C@@H](CO)N1C(=O)c1cccnc1`, the activity change, negative = cytotoxicity is 13.1% (inactive).

On to `COc1ccc(C(=O)CN2C(=O)c3ccccc3S2(=O)=O)cc1`, for which the activity change, negative = cytotoxicity was 19.9% (inactive). The same measure, in the same setting: for `COC(=O)c1cccc(NC(=O)NC(=O)c2ccc(Cl)cc2)c1` the value was -16.8% (inactive); for `COc1cccc(S(=O)(=O)N(C)C[C@H]2OCc3cnnn3CCCC(=O)N([C@@H](C)CO)C[C@H]2C)c1`, -0.98% (inactive); for `C=CC[n+]1c(-c2ccc(C)cc2)csc1Nc1ccc(NC(C)=O)cc1`, 0.856% (inactive). Regarding `C=CCOC(=O)c1sc(NC(=O)c2ccc(OC)cc2)nc1C`, the activity change, negative = cytotoxicity is -3.67% (inactive).

For `COC(=O)C[C@@H]1CC[C@@H]2[C@H](COc3ccc(NC(=O)c4ccc(F)cc4)cc3C(=O)N2C)O1`, the activity change, negative = cytotoxicity was 15.1% (inactive). For `Cc1cc(C(=O)NNC(=O)c2ccc(S(=O)(=O)N(C)C)cc2)c(C)o1`, the activity change, negative = cytotoxicity was 17.6% (inactive). In the case of `CC(C)CN(C(=O)CN1CCOCC1)c1c(N)n(CC(C)C)c(=O)[nH]c1=O`, the activity change, negative = cytotoxicity is -2.81% (inactive). The same measure, in the same setting: for `Cc1ccc(Cl)cc1NC(=O)Cn1cc(C(F)(F)F)cc(Cl)c1=O` the value was 2.53% (inactive). Still for that read-out and setting: the figure for `Cc1ccc(NC(=O)COC(=O)c2ccc3c(c2)OCO3)cc1S(=O)(=O)N1CCCCC1` is 10.2% (inactive); for `CN(C)[C@@H]1CCC[C@@H]1OC(=O)C(c1ccccc1)c1ccccc1` it is 10.9% (inactive).

For `CCOC(=O)c1c(-c2ccc(C)cc2)csc1NC(=O)CCN1CCOCC1`, the activity change, negative = cytotoxicity is 13.3% (inactive). Still for that read-out and setting: for `O=C(O)c1ccc(N/N=C/c2cc(Br)cs2)cc1` the value was 25.7% (inactive). On the same count and under the same terms, for `COc1ccc(NC(=O)N(C)[C@H]2C[C@H]3c4[nH]c5ccccc5c4CCN3C(=O)[C@H]2CO)cc1` the value was 2.92% (inactive); for `Cc1cc2sc3ccc(C#CC4(O)CCCCC4)cc3c(=O)c2cc1C`, 23.5% (inactive). Same read-out and setting: the figure for `Cc1ccc(NC(=O)CCN2CCCCC2)cc1` is 3.68% (inactive). Regarding `Nc1ccc2oc(-c3cc(Br)ccc3Cl)nc2c1`, the activity change, negative = cytotoxicity was -14.7% (inactive). On to `COC(=O)C[C@@H]1CC[C@@H]2[C@H](COc3ccc(NC(=O)c4cc(F)cc(F)c4)cc3C(=O)N2C)O1`, for which the activity change, negative = cytotoxicity was -5.96% (inactive). The same measure, in the same setting: the figure for `C[C@@H]1CN([C@@H](C)CO)C(=O)c2cccc(NC(=O)Nc3ccccc3)c2O[C@@H]1CN(C)Cc1ccc(-c2ccccc2)cc1` is 20.4% (inactive); for `COC(=O)C[C@@H]1CC[C@@H]2[C@H](COc3ccc(NC(=O)c4ccccc4)cc3C(=O)N2C)O1` it is 7.67% (inactive); for `COc1ccc(NS(=O)(=O)c2cc(NC(=O)CNC(=O)c3cccc(OC)c3)ccc2C)cc1` it is -0.075% (inactive). The same measure, in the same setting: the figure for `CCc1c(C(=O)NN2C(=O)C3CCCCC3C2=O)csc1C` (stereo unspecified) is 23.1% (inactive).

On to `Cc1ccsc1C(=O)OCC(=O)NCCC1=CCCCC1`, for which the activity change, negative = cytotoxicity is 9.59% (inactive). Still for that read-out and setting: the figure for `CC(C)c1ccccc1NC(=O)COC(=O)CCN1C(=O)/C(=C\C=C\c2ccccc2)SC1=S` is 19.1% (inactive); for `CCNC(=O)[C@@H]1[C@@H](CO)[C@@H]2Cn3c(ccc(C4=CCCCC4)c3=O)[C@H]1N2CC` it is 8.36% (inactive).

For `COC(=O)c1cccc(NC(=O)NC(=O)c2ccccc2Cl)c1`, the activity change, negative = cytotoxicity was 7.25% (inactive). Same read-out and setting: the figure for `COc1cc(OC)cc(-c2cc3nc(C)c(CCC(=O)NCc4ccccc4)c(C)n3n2)c1` is 9.58% (inactive); for `COC(=O)C(CC#Cc1ccc2c(c1)[C@]1(C(=O)N2)[C@H](c2ccc(OCCO)cc2)N2[C@H](c3ccccc3)[C@H](c3ccccc3)OC(=O)[C@H]2[C@@H]1C(=O)N1CCN(c2ncccn2)CC1)C(=O)OC` it is 3.63% (inactive); for `Cc1c(CC(=O)NCCCC(=O)O)c(=O)oc2cc3c(cc12)CCC(C)(C)O3` it is 4.66% (inactive). Still for that read-out and setting: for `Cc1c(-c2nc(-c3ccc(C(C)(C)C)cc3)no2)n(C)oc1=O` the value was -0.627% (inactive); for `CC(C)CC(NC(=O)c1cccs1)c1nnc(SCc2ccc(Cl)c(Cl)c2)n1C` (stereo unspecified), -10% (inactive); for `COc1ccc(-c2sc3ccccc3c2-c2ccc(OCCN3CCCCC3)cc2)cc1`, 12.2% (inactive).

In the case of `O=C1Nc2cc(C(=O)NCCN3CCCCCC3)ccc2S/C1=C\c1ccccc1`, the activity change, negative = cytotoxicity is -2.13% (inactive). Still for that read-out and setting: the figure for `O=c1cc(CN2CCN(Cc3ccccc3)CC2)c2ccc(O)c(O)c2o1` is -9.02% (inactive). Same read-out and setting: the figure for `CC(C)(C)C(=O)Nc1ccc(N=Nc2ccccc2)cc1` is -0.79% (inactive); for `COc1ccc(Cl)cc1S(=O)(=O)Nc1ccc2c(c1)n(C)c(=O)n2C` it is -4.55% (inactive). On the same count and under the same terms, for `COc1ccc(S(=O)(=O)N=Nc2c(O)[nH]c3ccccc23)cc1` the value was 5.63% (inactive); for `COC(=O)Cc1ccc(NC(=O)c2ccccc2Cl)cc1`, -1.96% (inactive). In the case of `CCn1c(C)cc(C(=O)CN2C(=O)c3ccccc3S2(=O)=O)c1C`, the activity change, negative = cytotoxicity is 9.04% (inactive). Still for that read-out and setting: for `CNC[C@H](CC1CCCCC1)NC[C@H](CO)NCCc1cccc(C(F)(F)F)c1` the value was 3.89% (inactive); for `COc1ccccc1N(/N=C1\Sc2ccccc2C1=O)C(C)=O`, -15.8% (inactive). Still for that read-out and setting: the figure for `O=C(O)CN1C(=O)/C(=C\c2ccccc2OCc2ccc(Cl)cc2Cl)SC1=S` is 10.8% (inactive); for `COc1ccc(/C=C2\SC(=S)N(CCCC(=O)NNC(=O)c3ccccc3O)C2=O)cc1` it is -6.8% (inactive); for `CC1=NC(=O)C(N=Nc2cccc(C(=O)O)c2)N1c1ccccc1` (stereo unspecified) it is 18.2% (inactive). Same read-out and setting: for `COc1cc(/C=N/NS(=O)(=O)c2ccc3ccccc3c2)ccc1OCc1ccc(C(=O)O)cc1` the value was 12.1% (inactive); for `COc1ccc(/C=C2/SC(=S)N(CCCC(=O)Nc3ccccc3C(=O)O)C2=O)cc1`, 15% (inactive). Take `COc1cc(/C=N/NC(=O)c2csc3c2CCCC3)cc(OC)c1O`: the activity change, negative = cytotoxicity was -7.47% (inactive). For `Cc1c(N=Cc2cc(Br)cc(Br)c2O)cccc1C(=O)O`, the activity change, negative = cytotoxicity was 25.2% (inactive). Still for that read-out and setting: for `CC(=O)Nc1cc(C(=O)NCc2ccco2)ccc1Sc1ccc(F)cc1` the value was -1.03% (inactive); for `Cc1noc(C)c1NC(=O)Nc1ccc2c(c1)CC(=O)N([C@H](C)CO)C[C@@H](C)[C@@H](CN(C)Cc1ccc(Cl)c(Cl)c1)O2`, 0.509% (inactive). With `CC(=O)Nc1ccc(OCC(=O)N(CC(C)C)C2CCS(=O)(=O)C2)cc1` (stereo unspecified), the activity change, negative = cytotoxicity was 11.9% (inactive).

In the case of `O=C(/C=C/c1ccc(Cl)cc1Cl)N(Cc1ccc(Cl)cc1)C1CCS(=O)(=O)C1` (stereo unspecified), the activity change, negative = cytotoxicity was 11.6% (inactive). Same read-out and setting: the figure for `C[C@@H]1CN([C@@H](C)CO)S(=O)(=O)c2ccc(C#Cc3ccncc3)cc2O[C@H]1CN(C)S(=O)(=O)c1ccccc1` is -2.93% (inactive); for `CCOC(=O)Cc1csc(NC(=S)NC(=O)c2ccc(C)cc2)n1` it is 19.7% (inactive); for `Cc1ccsc1/C=N/Nc1cccc(C(=O)O)c1` it is -2.07% (inactive).

Regarding `COc1ccc(CNc2ncc(-c3ccc(F)cc3)n2C)c2ccccc12`, the activity change, negative = cytotoxicity is -1.83% (inactive). On the same count and under the same terms, for `CCCCOc1ccc(NC(=O)C(=O)NCCCn2ccnc2)cc1` the value was -2% (inactive). Same read-out and setting: for `CN(CCO)c1ccc(/C=N/Nc2nncc3ccccc23)cc1` the value was 0.119% (inactive); for `CC(C)(C)c1ccc(Oc2ccc(NC(=O)C3CC=CCC3C(=O)O)cc2)cc1` (stereo unspecified), -20.1% (inactive). The same measure, in the same setting: the figure for `Cc1ccccc1N=CC1=C(O)c2ccccc2C1=O` is 20.2% (inactive).

Take `CCOc1ccc(NC(=O)C(=O)N/N=C\c2ccc(CNS(=O)(=O)c3ccccc3)o2)cc1`: the activity change, negative = cytotoxicity is 17.4% (inactive). Still for that read-out and setting: for `COC(=O)C[C@@H]1CC[C@@H]2[C@H](COc3ccc(NC(=O)Nc4cccc(C#N)c4)cc3C(=O)N2C)O1` the value was 5.41% (inactive).
